Measured values as given in patent US20020137929A1, “1 - (3-heterocyclylphenyl) isothiourea, -isourea, -guanidine and -amidine herbicidal agents” (Intellectual Property Department, BASF Aktiengesellschaft, priority 1998, published 2002).

What was measured:
[1] = system: ZEAMX (Corn, Field); assay: Preemergence herbicidal evaluation; format: in vivo, Zea mays; conditions: rated 4-5 weeks after treatment
Procedure, shortened: (§1)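 Sown cups got a single aqueous acetone spray of test compound (roughly 0.0156–0.500 kg/ha) before seedlings emerged. Evaluation, 4–5 weeks on, used a 0–9 visual scale covering plant stand, vigor, size, malformation, chlorosis and general appearance compared with controls.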

[2] = system: CYPSE (Flatsedge); assay: Postemergence weed control under flooded paddy conditions; format: in vivo, Cyperus serotinus; conditions: postemergence weeds
Procedure, shortened: (§2)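 Herbicidal effect is judged by eye on a 0–9 scale versus control, 3–4 weeks after dosing. Dosing is into flood water kept 1.5–3 cm over the soil, at about 0.0313–0.500 kg/ha in aqueous/acetone 50/50 v/v, on 3–5 cm weeds and 1.5–2.5-leaf rice seedlings.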

[3] = system: ECHORC (Watergrass (Calif.)); assay: as above; format: in vivo, Echinochloa oryzoides; conditions: postemergence weeds
Procedure, shortened: as §2

[4] = system: ECHCG (Barnyardgrass); assay: Preemergence herbicidal evaluation; format: in vivo, Echinochloa crus-galli; conditions: rated 4-5 weeks after treatment
Procedure, shortened: as §1

[5] = system: ORYSAT (Rice, Tebonnet); assay: Postemergence herbicidal evaluation; format: in vivo, Oryza sativa, (L.) Tebonnet
Procedure, shortened: (§3)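 First, seedlings were raised for around two weeks. Next, test material in 50/50 acetone/water containing 0.5% TWEEN 20 was sprayed through a nozzle at 40 psi, equivalent to about 0.0156–0.500 kg/ha. Finally, after 4–5 weeks in the greenhouse, plants were rated 0–9.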

[6] = system: SAGPY (Arrowhead (Pygmaea)); assay: Postemergence weed control under flooded paddy conditions; format: in vivo, Sagittaria pygmaea; conditions: postemergence weeds
Procedure, shortened: as §2

[7] = system: ZEAMX (Corn, Field); assay: Postemergence herbicidal evaluation; format: in vivo, Zea mays
Procedure, shortened: as §3

[8] = system: ECHORC (Watergrass (Calif.)); assay: Preemergence weed control under flooded paddy conditions; format: in vivo, Echinochloa oryzoides; conditions: rated 3-4 weeks after treatment
Procedure, shortened: (§4)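 Ratings on a 0-9 visual scale cover stand, vigor, malformation, size, chlorosis and overall appearance relative to a control, taken three to four weeks post-treatment. Application was into flood water over freshly sown silt loam at roughly 0.0313 to 0.500 kg/ha.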

[9] = system: CYPIR (Rice Flatsedge); assay: as above; format: in vivo, Cyperus iria; conditions: rated 3-4 weeks after treatment
Procedure, shortened: as §4

[10] = system: TRZAWR (Wheat, Winter, cv Riband); assay: Preemergence herbicidal evaluation; format: in vivo, Triticum aestivum; conditions: rated 4-5 weeks after treatment
Procedure, shortened: as §1

[11] = system: CYPIR (Rice Flatsedge); assay: Postemergence weed control under flooded paddy conditions; format: in vivo, Cyperus iria; conditions: postemergence weeds
Procedure, shortened: as §2

[12] = system: SETVI (Foxtail, Green); assay: Postemergence herbicidal evaluation; format: in vivo, Setaria viridis
Procedure, shortened: as §3

[13] = system: CYPSE (Flatsedge); assay: Preemergence weed control under flooded paddy conditions; format: in vivo, Cyperus serotinus; conditions: rated 3-4 weeks after treatment
Procedure, shortened: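 Seeds or propagules sown in top 0.5 cm of silt loam soil, flooded 1.5 to 3 cm above surface throughout. Compound in 50/50 v/v aqueous/acetone pipetted into flood water at about 0.0313 to 0.500 kg/ha. Visual 0-9 rating versus control after three to four weeks in greenhouse.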

[14] = system: SETVI (Foxtail, Green); assay: Preemergence herbicidal evaluation; format: in vivo, Setaria viridis; conditions: rated 4-5 weeks after treatment
Procedure, shortened: as §1

[15] = rate 0.0313 kg/ha, 3-4 weeks after treatment
[16] = rate 0.0625 kg/ha, 3-4 weeks after treatment
[17] = rate 0.1250 kg/ha, 3-4 weeks after treatment
[18] = rate 0.2500 kg/ha, 3-4 weeks after treatment
[19] = Rate 0.0625 kg/ha, rated 3 to 4 weeks after treatment

Cn1c(C(F)(F)F)cc(=O)n(-c2cc(N=C3SCC(=O)N3[C@@H](Cc3ccccc3)C(=O)O)c(Cl)cc2F)c1=O [Compound 53, α-Benzyl-2-{{2-chloro-5-[3,6-dihydro-3-methyl-2,6-dioxo-4-(trifluoromethyl)-1(2H)-pyrimidinyl]-4-fluorophenyl}imino}-4-oxo-3-thiazolidineacetic acid, L-]
3.5: Postemergence herbicidal rating ORYSAT ([5]; Rate 0.0630 kg/ha)
6.0: Preemergence herbicidal rating ZEAMX ([1]; rate 0.2500 kg/ha) | Postemergence herbicidal rating SETVI ([12]; Rate 0.0158 kg/ha) | Postemergence herbicidal rating SETVI ([12]; Rate 0.0315 kg/ha)
8.0: Postemergence herbicidal rating ZEAMX ([7]; Rate 0.0630 kg/ha)
2.0: Herbicidal rating ECHORC [3, 17] | Postemergence herbicidal rating ORYSAT ([5]; Rate 0.0158 kg/ha) | Herbicidal rating ECHORC ([8]; 0.1250 kg/ha) | Herbicidal rating CYPIR ([9]; 0.0313 kg/ha) | Herbicidal rating CYPIR ([9]; 0.0625 kg/ha) | Preemergence herbicidal rating TRZAWR ([10]; rate 0.1250 kg/ha) | Herbicidal rating CYPIR [11, 15] | Herbicidal rating CYPIR [11, 16]
5.5: Postemergence herbicidal rating ZEAMX ([7]; Rate 0.0158 kg/ha)
7.5: Postemergence herbicidal rating ZEAMX ([7]; Rate 0.0315 kg/ha)
2.5: Postemergence herbicidal rating ORYSAT ([5]; Rate 0.0315 kg/ha)
4.0: Preemergence herbicidal rating ECHCG ([4]; rate 0.0625 kg/ha) | Preemergence herbicidal rating SETVI ([14]; rate 0.0625 kg/ha)
7.0: Preemergence herbicidal rating ECHCG ([4]; rate 0.1250 kg/ha) | Preemergence herbicidal rating TRZAWR ([10]; rate 0.2500 kg/ha) | Postemergence herbicidal rating SETVI ([12]; Rate 0.0630 kg/ha) | Preemergence herbicidal rating SETVI ([14]; rate 0.1250 kg/ha)
1.0: Preemergence herbicidal rating ZEAMX ([1]; rate 0.0313 kg/ha) | Preemergence herbicidal rating ZEAMX ([1]; rate 0.0625 kg/ha) | Preemergence herbicidal rating ECHCG ([4]; rate 0.0313 kg/ha) | Preemergence herbicidal rating TRZAWR ([10]; rate 0.0625 kg/ha) | Preemergence herbicidal rating SETVI ([14]; rate 0.0313 kg/ha)
5.0: Preemergence herbicidal rating ZEAMX ([1]; rate 0.1250 kg/ha)
3.0: Herbicidal rating ECHORC [3, 18] | Herbicidal rating ECHORC ([8]; 0.2500 kg/ha)
9.0: Preemergence herbicidal rating ECHCG ([4]; rate 0.2500 kg/ha) | Herbicidal rating CYPIR ([9]; 0.1250 kg/ha) | Herbicidal rating CYPIR ([9]; 0.2500 kg/ha) | Herbicidal rating CYPIR [11, 17] | Herbicidal rating CYPIR [11, 18] | Preemergence herbicidal rating SETVI ([14]; rate 0.2500 kg/ha)
0.0: Herbicidal rating CYPSE [2, 15] | Herbicidal rating CYPSE [2, 16] | Herbicidal rating CYPSE [2, 17] | Herbicidal rating CYPSE [2, 18] | Herbicidal rating ECHORC [3, 15] | Herbicidal rating ECHORC [3, 16] | Herbicidal rating SAGPY [6, 15] | Herbicidal rating SAGPY [6, 16] | Herbicidal rating SAGPY [6, 17] | Herbicidal rating SAGPY [6, 18] | Herbicidal rating ECHORC ([8]; 0.0313 kg/ha) | Herbicidal rating ECHORC ([8]; 0.0625 kg/ha) | Preemergence herbicidal rating TRZAWR ([10]; rate 0.0313 kg/ha) | Herbicidal rating CYPSE ([13]; 0.0313 kg/ha) | Herbicidal rating CYPSE ([13]; 0.0625 kg/ha) | Herbicidal rating CYPSE ([13]; 0.1250 kg/ha) | Herbicidal rating CYPSE ([13]; 0.2500 kg/ha)

C#CCOC(=O)CC1SC(=Nc2cc(-n3c(=O)cc(C(F)(F)F)n(C)c3=O)c(F)cc2Cl)N(CC(=O)OCC)C1=O (stereo not shown) [Compound 59, 2-{{2-Chloro-5-[3,6-dihydro-3-methyl-2,6-dioxo-4-(trifluoromethyl)-1(2H)-pyrimidinyl]-4-fluorophenyl}imino}-4-oxo-3,5-thiazolidinediacetic acid, 3-ethyl (2-propynyl) ester]
0.5: Preemergence herbicidal rating ZEAMX ([1]; rate 0.0313 kg/ha) | Preemergence herbicidal rating ECHCG ([4]; rate 0.0625 kg/ha)
3.0: Preemergence herbicidal rating ZEAMX ([1]; rate 0.1250 kg/ha) | Herbicidal rating SAGPY [6, 18]
8.0: Postemergence herbicidal rating ZEAMX ([7]; Rate 0.0315 kg/ha) | Preemergence herbicidal rating SETVI ([14]; rate 0.1250 kg/ha)
5.5: Postemergence herbicidal rating ORYSAT ([5]; Rate 0.0630 kg/ha)
8.5: Postemergence herbicidal rating ZEAMX ([7]; Rate 0.0630 kg/ha)
9.0: Preemergence herbicidal rating ECHCG ([4]; rate 0.5000 kg/ha) | CYPIR herbicidal effect rating ([9]; 0.2500 kg/ha) | Herbicidal rating CYPIR [11, 18] | Postemergence herbicidal rating SETVI ([12]; Rate 0.0158 kg/ha) | Postemergence herbicidal rating SETVI ([12]; Rate 0.0315 kg/ha) | Postemergence herbicidal rating SETVI ([12]; Rate 0.0630 kg/ha) | Preemergence herbicidal rating SETVI ([14]; rate 0.2500 kg/ha) | Preemergence herbicidal rating SETVI ([14]; rate 0.5000 kg/ha)
5.0: Herbicidal rating ECHORC [3, 17] | ECHORC herbicidal effect rating ([8]; 0.1250 kg/ha)
4.5: Postemergence herbicidal rating ORYSAT ([5]; Rate 0.0158 kg/ha)
6.0: Preemergence herbicidal rating ZEAMX ([1]; rate 0.5000 kg/ha) | Preemergence herbicidal rating ECHCG ([4]; rate 0.2500 kg/ha) | Postemergence herbicidal rating ORYSAT ([5]; Rate 0.0315 kg/ha)
4.0: Herbicidal rating ECHORC [3, 19] | ECHORC herbicidal effect rating ([8]; 0.0625 kg/ha)
3.5: Preemergence herbicidal rating ZEAMX ([1]; rate 0.2500 kg/ha)
7.0: Herbicidal rating CYPSE [2, 18] | Herbicidal rating ECHORC [3, 18] | ECHORC herbicidal effect rating ([8]; 0.2500 kg/ha) | CYPSE herbicidal effect rating ([13]; 0.2500 kg/ha)
1.0: Preemergence herbicidal rating ZEAMX ([1]; rate 0.0156 kg/ha)
0.0: Herbicidal rating CYPSE [2, 19] | Herbicidal rating CYPSE [2, 17] | Preemergence herbicidal rating ECHCG ([4]; rate 0.0156 kg/ha) | Preemergence herbicidal rating ECHCG ([4]; rate 0.0313 kg/ha) | Herbicidal rating SAGPY [6, 19] | Herbicidal rating SAGPY [6, 17] | CYPIR herbicidal effect rating ([9]; 0.0625 kg/ha) | CYPIR herbicidal effect rating ([9]; 0.1250 kg/ha) | Preemergence herbicidal rating TRZAWR ([10]; rate 0.0156 kg/ha) | Preemergence herbicidal rating TRZAWR ([10]; rate 0.0313 kg/ha) | Preemergence herbicidal rating TRZAWR ([10]; rate 0.0625 kg/ha) | Herbicidal rating CYPIR [11, 19] | Herbicidal rating CYPIR [11, 17] | CYPSE herbicidal effect rating ([13]; 0.0625 kg/ha) | CYPSE herbicidal effect rating ([13]; 0.1250 kg/ha) | Preemergence herbicidal rating SETVI ([14]; rate 0.0156 kg/ha) | Preemergence herbicidal rating SETVI ([14]; rate 0.0313 kg/ha)
2.0: Preemergence herbicidal rating ECHCG ([4]; rate 0.1250 kg/ha) | Preemergence herbicidal rating TRZAWR ([10]; rate 0.1250 kg/ha) | Preemergence herbicidal rating TRZAWR ([10]; rate 0.2500 kg/ha)
1.5: Preemergence herbicidal rating ZEAMX ([1]; rate 0.0625 kg/ha) | Preemergence herbicidal rating SETVI ([14]; rate 0.0625 kg/ha)
7.5: Postemergence herbicidal rating ZEAMX ([7]; Rate 0.0158 kg/ha)
